Reference: ChEMBL document CHEMBL4422610, “HDAC as onco target: Reviewing the synthetic approaches with SAR study of their inhibitors” (Eur J Med Chem, 2018)

Tests used:
[1] = target: T1, Protein deacetylase HDAC6 (Homo sapiens, UniProt Q9UBN7); test: Inhibition of recombinant full-length human HDAC6 expressed in baculovirus expression system using FAM-RHKK(Ac)-H2 as substrate measured by electrophoretic mobility shift assay
T1 sequence (Q9UBN7 whole entry): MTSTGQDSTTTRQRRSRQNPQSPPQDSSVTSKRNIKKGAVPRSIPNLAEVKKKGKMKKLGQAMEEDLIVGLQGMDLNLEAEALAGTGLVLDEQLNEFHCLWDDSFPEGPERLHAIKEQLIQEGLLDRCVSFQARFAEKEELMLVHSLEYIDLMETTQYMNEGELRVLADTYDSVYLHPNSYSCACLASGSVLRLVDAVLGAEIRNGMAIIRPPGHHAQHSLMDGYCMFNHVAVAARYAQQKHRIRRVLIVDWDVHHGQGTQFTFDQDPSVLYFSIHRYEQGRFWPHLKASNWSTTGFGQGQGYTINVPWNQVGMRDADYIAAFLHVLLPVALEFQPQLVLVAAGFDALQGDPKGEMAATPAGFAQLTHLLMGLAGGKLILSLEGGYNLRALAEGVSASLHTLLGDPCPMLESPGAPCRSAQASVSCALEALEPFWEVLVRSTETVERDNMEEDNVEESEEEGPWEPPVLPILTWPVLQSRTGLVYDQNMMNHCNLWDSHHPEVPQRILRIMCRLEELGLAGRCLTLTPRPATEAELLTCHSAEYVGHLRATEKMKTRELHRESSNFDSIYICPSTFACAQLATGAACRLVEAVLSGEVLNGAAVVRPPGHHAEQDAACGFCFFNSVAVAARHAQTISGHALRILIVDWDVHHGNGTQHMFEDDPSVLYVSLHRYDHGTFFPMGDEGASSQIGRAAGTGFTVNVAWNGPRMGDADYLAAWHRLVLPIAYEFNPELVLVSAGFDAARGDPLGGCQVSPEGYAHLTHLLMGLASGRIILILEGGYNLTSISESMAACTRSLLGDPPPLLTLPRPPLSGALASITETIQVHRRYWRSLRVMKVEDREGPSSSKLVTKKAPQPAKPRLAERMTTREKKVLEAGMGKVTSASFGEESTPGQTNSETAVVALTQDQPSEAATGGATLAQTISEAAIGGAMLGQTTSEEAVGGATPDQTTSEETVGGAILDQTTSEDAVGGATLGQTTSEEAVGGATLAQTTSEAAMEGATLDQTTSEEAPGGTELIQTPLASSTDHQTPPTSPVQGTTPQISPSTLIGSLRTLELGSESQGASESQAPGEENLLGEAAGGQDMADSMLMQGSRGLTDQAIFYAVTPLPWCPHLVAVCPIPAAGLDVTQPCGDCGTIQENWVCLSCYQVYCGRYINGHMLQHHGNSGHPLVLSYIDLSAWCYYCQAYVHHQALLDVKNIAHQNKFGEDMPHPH

[2] = target: T2, Histone deacetylase 1 (Homo sapiens, UniProt Q13547); test: Inhibition of HDAC1 (unknown origin) using Ac-peptide as substrate preincubated for 15 mins followed by substrate addition and measured after 60 mins by fluorescence assay
T2 sequence (Q13547 whole entry): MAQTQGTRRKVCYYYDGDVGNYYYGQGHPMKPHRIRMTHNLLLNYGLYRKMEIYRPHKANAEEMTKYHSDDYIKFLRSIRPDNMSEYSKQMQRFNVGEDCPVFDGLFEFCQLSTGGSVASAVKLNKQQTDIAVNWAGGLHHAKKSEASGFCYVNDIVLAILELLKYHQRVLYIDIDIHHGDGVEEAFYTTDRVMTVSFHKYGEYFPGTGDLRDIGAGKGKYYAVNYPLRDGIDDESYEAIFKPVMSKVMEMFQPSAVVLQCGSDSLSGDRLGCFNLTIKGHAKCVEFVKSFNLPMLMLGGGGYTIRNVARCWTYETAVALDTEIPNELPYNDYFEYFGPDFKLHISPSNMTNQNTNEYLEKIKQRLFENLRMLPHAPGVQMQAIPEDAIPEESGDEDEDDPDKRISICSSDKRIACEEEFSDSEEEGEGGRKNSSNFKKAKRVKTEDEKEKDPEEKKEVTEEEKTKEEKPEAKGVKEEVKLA

[3] = target: T2, Histone deacetylase 1; test: Inhibition of GST-tagged HDAC1 (unknown origin) expressed in insect cells using poly (Glu, Tyr) 4:1 as substrate measured after 15 mins in presence of [gamma-33P]ATP by Topcount method
[4] = tested on: Zea mays; test: Inhibition of maize HD2 at 5 uM using [3H]acetate-labelled histone as substrate by liquid scintillation counting method relative to control
[5] = target: T2, Histone deacetylase 1; test: Inhibition of human HDAC1 using fluorogenic HDAC substrate
[6] = target: Histone deacetylase 2 (Homo sapiens, UniProt Q92769); test: Inhibition of human HDAC2 using fluorogenic HDAC substrate
Sequence of Histone deacetylase 2 (Q92769 whole entry): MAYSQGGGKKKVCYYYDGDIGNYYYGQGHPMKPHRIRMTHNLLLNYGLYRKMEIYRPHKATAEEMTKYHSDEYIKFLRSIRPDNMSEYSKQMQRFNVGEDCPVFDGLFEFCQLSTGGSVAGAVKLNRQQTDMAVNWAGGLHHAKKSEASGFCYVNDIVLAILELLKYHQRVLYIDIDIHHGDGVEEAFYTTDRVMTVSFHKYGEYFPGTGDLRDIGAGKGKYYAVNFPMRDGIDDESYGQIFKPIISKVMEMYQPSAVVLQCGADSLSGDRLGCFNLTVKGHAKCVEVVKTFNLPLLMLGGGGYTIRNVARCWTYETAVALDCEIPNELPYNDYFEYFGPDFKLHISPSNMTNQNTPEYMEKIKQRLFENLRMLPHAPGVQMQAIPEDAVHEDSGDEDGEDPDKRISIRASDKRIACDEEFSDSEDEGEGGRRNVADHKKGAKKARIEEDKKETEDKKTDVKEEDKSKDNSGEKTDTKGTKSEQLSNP

[7] = target: Histone deacetylase 3 (Homo sapiens, UniProt O15379); test: Inhibition of human HDAC3 using fluorogenic HDAC substrate
Sequence of Histone deacetylase 3 (O15379 whole entry): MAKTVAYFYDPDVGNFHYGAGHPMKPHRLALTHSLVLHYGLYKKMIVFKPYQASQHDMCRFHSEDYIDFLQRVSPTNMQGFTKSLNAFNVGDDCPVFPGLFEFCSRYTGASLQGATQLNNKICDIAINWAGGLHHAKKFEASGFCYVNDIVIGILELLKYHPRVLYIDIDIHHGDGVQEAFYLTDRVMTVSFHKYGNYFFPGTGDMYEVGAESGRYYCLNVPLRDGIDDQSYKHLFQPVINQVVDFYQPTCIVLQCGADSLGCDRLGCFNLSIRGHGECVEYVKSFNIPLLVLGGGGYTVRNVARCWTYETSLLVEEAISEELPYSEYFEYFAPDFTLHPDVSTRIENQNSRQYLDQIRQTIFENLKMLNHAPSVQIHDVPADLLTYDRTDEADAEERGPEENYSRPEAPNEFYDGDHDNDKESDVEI

[8] = target: Histone deacetylase 4 (Homo sapiens, UniProt P56524); test: Inhibition of human HDAC4 using fluorogenic HDAC substrate
Sequence of Histone deacetylase 4 (P56524 whole entry): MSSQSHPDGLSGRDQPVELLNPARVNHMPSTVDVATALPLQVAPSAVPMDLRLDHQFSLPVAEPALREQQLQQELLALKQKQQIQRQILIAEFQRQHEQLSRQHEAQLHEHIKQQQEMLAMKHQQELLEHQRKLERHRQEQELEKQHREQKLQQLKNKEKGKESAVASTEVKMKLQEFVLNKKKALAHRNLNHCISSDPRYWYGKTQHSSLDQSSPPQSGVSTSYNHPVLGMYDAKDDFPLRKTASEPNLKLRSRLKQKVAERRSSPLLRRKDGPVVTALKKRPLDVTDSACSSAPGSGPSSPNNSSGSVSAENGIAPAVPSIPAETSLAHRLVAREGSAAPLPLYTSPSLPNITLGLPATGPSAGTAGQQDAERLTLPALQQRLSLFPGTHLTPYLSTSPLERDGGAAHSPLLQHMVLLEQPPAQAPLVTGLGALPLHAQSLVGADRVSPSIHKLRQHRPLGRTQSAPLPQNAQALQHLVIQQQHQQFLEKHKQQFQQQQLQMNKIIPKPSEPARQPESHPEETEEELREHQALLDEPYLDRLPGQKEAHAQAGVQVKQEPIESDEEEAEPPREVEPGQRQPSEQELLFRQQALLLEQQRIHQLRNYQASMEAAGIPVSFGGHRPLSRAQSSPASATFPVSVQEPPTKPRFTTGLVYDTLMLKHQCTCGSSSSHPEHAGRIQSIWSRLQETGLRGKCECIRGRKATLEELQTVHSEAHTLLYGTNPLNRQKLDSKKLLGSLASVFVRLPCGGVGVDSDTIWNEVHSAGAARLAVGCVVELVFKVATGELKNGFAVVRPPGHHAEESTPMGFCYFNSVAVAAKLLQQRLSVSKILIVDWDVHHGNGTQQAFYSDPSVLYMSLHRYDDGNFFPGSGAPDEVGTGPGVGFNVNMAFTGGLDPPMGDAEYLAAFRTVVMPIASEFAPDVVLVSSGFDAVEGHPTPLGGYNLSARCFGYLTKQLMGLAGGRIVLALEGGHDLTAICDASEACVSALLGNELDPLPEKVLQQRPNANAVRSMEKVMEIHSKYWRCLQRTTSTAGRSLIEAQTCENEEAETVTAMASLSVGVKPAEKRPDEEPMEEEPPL

[9] = target: Histone deacetylase 5 (Homo sapiens, UniProt Q9UQL6); test: Inhibition of human HDAC5 using fluorogenic HDAC substrate
Sequence of Histone deacetylase 5 (Q9UQL6 whole entry): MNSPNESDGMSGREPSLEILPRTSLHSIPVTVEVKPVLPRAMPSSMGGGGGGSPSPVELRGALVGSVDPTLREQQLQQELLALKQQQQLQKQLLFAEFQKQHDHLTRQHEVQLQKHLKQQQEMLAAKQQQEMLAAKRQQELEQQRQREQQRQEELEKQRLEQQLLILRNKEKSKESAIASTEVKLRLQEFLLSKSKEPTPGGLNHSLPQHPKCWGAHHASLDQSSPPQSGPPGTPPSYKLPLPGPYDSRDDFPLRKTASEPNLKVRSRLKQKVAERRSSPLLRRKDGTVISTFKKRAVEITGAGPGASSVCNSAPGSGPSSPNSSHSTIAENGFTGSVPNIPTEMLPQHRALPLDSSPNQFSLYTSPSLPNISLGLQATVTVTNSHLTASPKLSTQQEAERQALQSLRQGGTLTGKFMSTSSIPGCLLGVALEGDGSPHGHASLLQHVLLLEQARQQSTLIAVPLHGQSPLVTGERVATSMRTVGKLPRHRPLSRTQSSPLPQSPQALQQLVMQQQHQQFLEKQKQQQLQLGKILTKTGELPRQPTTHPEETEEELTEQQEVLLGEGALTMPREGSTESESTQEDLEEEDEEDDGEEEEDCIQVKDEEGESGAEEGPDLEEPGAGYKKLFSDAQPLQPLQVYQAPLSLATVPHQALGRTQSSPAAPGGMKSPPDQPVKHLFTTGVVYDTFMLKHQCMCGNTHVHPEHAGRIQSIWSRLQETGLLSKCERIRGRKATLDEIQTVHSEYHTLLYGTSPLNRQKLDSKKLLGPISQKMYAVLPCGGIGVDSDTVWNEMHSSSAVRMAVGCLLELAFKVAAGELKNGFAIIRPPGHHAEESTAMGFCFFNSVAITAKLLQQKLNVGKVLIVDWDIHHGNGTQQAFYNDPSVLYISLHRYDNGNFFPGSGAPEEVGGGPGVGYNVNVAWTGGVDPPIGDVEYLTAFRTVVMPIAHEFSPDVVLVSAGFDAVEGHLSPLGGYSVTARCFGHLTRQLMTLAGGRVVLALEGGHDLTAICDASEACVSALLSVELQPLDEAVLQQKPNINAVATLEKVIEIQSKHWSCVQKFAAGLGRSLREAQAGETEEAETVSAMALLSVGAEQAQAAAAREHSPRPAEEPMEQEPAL

[10] = target: T1, Protein deacetylase HDAC6; test: Inhibition of human HDAC6 using fluorogenic HDAC substrate
[11] = target: T3, Histone deacetylase 8 (Homo sapiens, UniProt Q9BY41); test: Inhibition of human HDAC8 using fluorogenic HDAC substrate
T3 sequence (Q9BY41 whole entry): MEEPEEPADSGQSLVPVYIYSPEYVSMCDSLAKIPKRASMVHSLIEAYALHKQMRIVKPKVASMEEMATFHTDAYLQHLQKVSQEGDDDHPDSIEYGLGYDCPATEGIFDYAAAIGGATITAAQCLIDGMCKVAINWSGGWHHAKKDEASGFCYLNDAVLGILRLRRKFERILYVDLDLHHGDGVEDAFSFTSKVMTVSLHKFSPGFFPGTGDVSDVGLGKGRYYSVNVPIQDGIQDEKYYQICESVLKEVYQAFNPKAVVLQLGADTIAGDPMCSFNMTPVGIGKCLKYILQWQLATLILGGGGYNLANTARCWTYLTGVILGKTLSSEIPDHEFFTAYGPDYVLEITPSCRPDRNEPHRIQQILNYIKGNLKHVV

[12] = target: Histone deacetylase 9 (Homo sapiens, UniProt Q9UKV0); test: Inhibition of human HDAC9 using fluorogenic HDAC substrate
Sequence of Histone deacetylase 9 (Q9UKV0 whole entry): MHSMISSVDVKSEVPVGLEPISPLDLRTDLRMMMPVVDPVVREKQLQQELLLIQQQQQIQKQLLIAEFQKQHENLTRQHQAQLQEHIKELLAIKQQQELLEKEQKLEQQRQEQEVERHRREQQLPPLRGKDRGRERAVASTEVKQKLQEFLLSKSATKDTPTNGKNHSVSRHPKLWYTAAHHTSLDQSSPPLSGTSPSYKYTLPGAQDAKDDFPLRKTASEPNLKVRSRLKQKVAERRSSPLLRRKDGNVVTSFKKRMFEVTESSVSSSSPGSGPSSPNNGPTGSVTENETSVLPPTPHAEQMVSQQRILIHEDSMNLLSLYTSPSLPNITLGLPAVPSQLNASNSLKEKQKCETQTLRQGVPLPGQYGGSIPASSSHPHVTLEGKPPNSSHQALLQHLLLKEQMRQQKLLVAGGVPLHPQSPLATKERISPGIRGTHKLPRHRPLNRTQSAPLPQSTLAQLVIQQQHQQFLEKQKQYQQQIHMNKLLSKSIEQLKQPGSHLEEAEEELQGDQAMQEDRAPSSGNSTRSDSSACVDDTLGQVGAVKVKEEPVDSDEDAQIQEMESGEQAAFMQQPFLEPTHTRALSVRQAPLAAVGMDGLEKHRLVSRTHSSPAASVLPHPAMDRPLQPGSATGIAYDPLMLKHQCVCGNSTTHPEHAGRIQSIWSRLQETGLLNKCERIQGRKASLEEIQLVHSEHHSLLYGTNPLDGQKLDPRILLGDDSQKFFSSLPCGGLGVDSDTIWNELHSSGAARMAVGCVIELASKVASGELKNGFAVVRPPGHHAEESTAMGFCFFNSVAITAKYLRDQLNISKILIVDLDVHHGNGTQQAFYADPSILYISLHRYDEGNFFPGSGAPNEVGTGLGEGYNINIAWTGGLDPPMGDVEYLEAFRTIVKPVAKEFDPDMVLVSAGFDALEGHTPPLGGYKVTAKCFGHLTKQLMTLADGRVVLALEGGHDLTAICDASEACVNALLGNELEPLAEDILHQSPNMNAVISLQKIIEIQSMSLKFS

[13] = target: T4, Polyamine deacetylase HDAC10 (Homo sapiens, UniProt Q969S8); test: Inhibition of human HDAC10 using fluorogenic HDAC substrate
T4 sequence (Q969S8 whole entry): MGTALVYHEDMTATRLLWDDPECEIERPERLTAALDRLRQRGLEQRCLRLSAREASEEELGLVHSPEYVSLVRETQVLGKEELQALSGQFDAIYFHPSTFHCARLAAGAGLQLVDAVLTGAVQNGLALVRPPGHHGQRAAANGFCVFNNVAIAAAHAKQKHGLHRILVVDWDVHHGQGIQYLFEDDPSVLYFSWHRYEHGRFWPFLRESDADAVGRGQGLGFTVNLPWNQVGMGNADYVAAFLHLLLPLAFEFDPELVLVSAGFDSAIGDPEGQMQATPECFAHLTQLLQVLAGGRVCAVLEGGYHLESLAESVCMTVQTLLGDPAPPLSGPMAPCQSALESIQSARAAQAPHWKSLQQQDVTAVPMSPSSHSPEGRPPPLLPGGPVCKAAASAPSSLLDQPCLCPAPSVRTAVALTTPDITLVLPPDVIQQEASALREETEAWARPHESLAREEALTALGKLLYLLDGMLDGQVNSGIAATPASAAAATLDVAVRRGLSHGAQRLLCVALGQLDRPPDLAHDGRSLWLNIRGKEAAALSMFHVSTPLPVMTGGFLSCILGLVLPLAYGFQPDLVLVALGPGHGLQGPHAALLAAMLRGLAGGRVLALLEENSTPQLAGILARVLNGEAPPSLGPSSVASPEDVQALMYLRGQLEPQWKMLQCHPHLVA

[14] = target: T5, Histone deacetylase 11 (Homo sapiens, UniProt Q96DB2); test: Inhibition of human HDAC11 using fluorogenic HDAC substrate
T5 sequence (Q96DB2 whole entry): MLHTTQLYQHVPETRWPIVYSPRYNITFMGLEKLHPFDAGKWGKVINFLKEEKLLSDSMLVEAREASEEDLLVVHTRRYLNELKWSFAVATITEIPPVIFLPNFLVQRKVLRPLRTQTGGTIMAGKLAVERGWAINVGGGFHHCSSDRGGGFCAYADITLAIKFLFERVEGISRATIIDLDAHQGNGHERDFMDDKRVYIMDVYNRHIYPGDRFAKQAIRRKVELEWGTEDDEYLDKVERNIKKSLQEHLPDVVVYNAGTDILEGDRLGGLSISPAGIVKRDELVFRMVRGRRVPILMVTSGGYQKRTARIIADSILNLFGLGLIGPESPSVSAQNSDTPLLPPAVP

## CC(C)N1CCC2(CCc3ccc(C(=O)NO)cc3C2)C1=O (centres undefined)
[1]
  IC50: > 500 nM

## O=C(NO)c1ccc2c(c1)CC1(CC2)CCN(Cc2ccncc2)C1=O (centres undefined)
[1]
  IC50: > 500 nM

## O=C(CCCCCCOc1ccccc1N1C(=O)CSC1c1cccc(Br)c1)NO (centres undefined)
[2]
  IC50: 50 nM

## Cc1[nH]c2ccccc2c1C1CCCN(Cc2ccc(/C=C/C(=O)NO)cc2)C1 (centres undefined)
[3]
  IC50: 6 nM

## Cc1ccc(C(=O)c2cc(/C=C/C(=O)NO)n(C)c2)cc1
[4]
  inhibition: 86.4%

## O=C(NO)c1ccc(Cn2c3c(c4cc(F)ccc42)C[S+]([O-])CC3)cc1 (centres undefined)
[5]
  IC50: 9400 nM
[6]
  IC50: > 30000 nM
[7]
  IC50: 24000 nM
[8]
  IC50: 1200 nM
[9]
  IC50: 1300 nM
[10]
  IC50: 9.4 nM
[11]
  IC50: 2400 nM
[12]
  IC50: 500 nM
[13]
  IC50: 6400 nM
[14]
  IC50: 500 nM

## O=C(CCCCCC(=O)Nc1ccccc1N1C(=O)CSC1c1cccc(Br)c1)NO (centres undefined)
[2]
  IC50: 29 nM

## O=C(NO)c1ccc(Cn2c3c(c4cc(F)ccc42)CS(=O)(=O)CC3)cc1
[6]
  IC50: 29000 nM
[7]
  IC50: 26000 nM
[9]
  IC50: 500 nM
[11]
  IC50: 900 nM
[12]
  IC50: 500 nM
[13]
  IC50: 5900 nM

## O=C(/C=C/c1ccc(C2CCCN2CCc2c(-c3cccnc3)nn3ccccc23)cc1)NO (centres undefined)
[3]
  IC50: 1 nM

## O=C(CCCCOc1ccccc1N1C(=O)CSC1c1cccc(Br)c1)NO (centres undefined)
[2]
  IC50: 530 nM

## O=C(NO)c1ccc2c(c1)CC1(CC2)CCN(Cc2cc(Cl)ccc2Cl)C1=O (centres undefined)
[1]
  IC50: 100 to 500 nM

## Cn1cc(C(=O)c2ccccc2)cc1CCC(=O)NO
[4]
  inhibition: 45%

## COc1ccc(CN2CCC3(CCc4ccc(C(=O)NO)cc4C3)C2=O)cc1 (centres undefined)
[1]
  IC50: ≤ 100 nM

## Cn1cc(C(=O)c2ccc(Cl)cc2)cc1/C=C/C(=O)NO
[4]
  inhibition: 87%

## COc1ccccc1N1C(=O)CSC1c1cccc(NC(=O)CCC(=O)NO)c1 (centres undefined)
[2]
  IC50: 350 nM

## O=C(NO)c1ccc(CN2c3ccccc3C[C@@H]3CCCCC[C@H]32)cc1
[5]
  IC50: > 30000 nM
[7]
  IC50: > 30000 nM
[8]
  IC50: > 30000 nM
[9]
  IC50: > 30000 nM
[10]
  IC50: 33 nM
[11]
  IC50: 6700 nM
[12]
  IC50: > 30000 nM
[13]
  IC50: > 30000 nM
[14]
  IC50: 1200 nM

## CC(C)c1[nH]c2ccccc2c1C1CCCN(Cc2ccc(/C=C/C(=O)NO)cc2)C1 (centres undefined)
[3]
  IC50: 6 nM

## O=C(CCCCCCCOc1ccccc1N1C(=O)CSC1c1cccc(Br)c1)NO (centres undefined)
[2]
  IC50: 29 nM

## O=C(NO)c1ccc(Cn2c3c(c4cc(F)ccc42)CSCC3)cc1
[7]
  IC50: 23000 nM
[9]
  IC50: 1800 nM
[12]
  IC50: 800 nM
[13]
  IC50: 21000 nM
